Test results from patent publication US20020068271A1, “Methods for identifying agents capable of modulating protein kinase C theta (PKC0) activity” (priority 1999, published 2002).
“Also recorded” adds a separate entry of the source. Residues, ends and D or L forms follow the SMILES beside them. *: point of attachment. Cbz = O=C(OCc1ccccc1)*

What was measured:
[1] = test system: PKCθ-A/E-induced NF-κB; assay: NF-κB-Luc reporter induced by constitutively active PKCθ-A/E in Jurkat cells; format: cell-based, human; settings: cultured 16 hr, MG132 0, 5, 10, 20 μM (FIG. 5a)
Experimental: (§1) Jurkat cells were transfected with an empty vector (−) or constitutively active PKCθ (10 μg) together with NF-κB-Luc (FIG. 5a) CD28RE/AP-1-Luc (FIG. 5b), or AP-1-Luc (FIG. 5c) reporter constructs (5 μg each). The cells were cultured for 16 hr with the indicated concentrations of the […] MG132 (0, 5, 10, 20 μM), lysed, and luciferase activity was quantified. FIG. 5d: Jurkat cells were transfected with wild type IKKα (5 μg) or IKKβ (2 μg) together with an empty vector (0) or increasing amounts of constitutively active PKCθ. Twenty-four hr later, the cells were stimulated with anti-CD3/CD28 antibodies or with TNFα. Immunoprecipitated IKKα or IKKβ were subjected to an in vitro kinase assay. Phosphorylated GST-IκBα/1-62 was detected by autoradiography (top panels). […] After 24 hr, cells were lysed and normalized luciferase activity was determined. FIG. 5f: The expression level of the transfected IKKs or PKCθ was assessed by Western blotting using c-Myc-(IKKα), Flag-(IKKβ), or PKCθ-specific antibodies.
(§2) Cell Culture, Transfection, and Reporter Assays. […] Transfected Jurkat cells were harvested after 24 hr, washed twice with PBS, lysed, and luciferase or β-galactosidase activities were determined. The results were expressed as arbitrary luciferase units normalized to β-galactosidase activity in the same cells. […]

[2] = test system: PKCθ-A/E-induced CD28RE/AP-1; assay: CD28RE/AP-1-Luc reporter induced by constitutively active PKCθ-A/E in Jurkat cells; format: cell-based, human; settings: cultured 16 hr, MG132 0, 5, 10, 20 μM (FIG. 5b)
Experimental: as §1, §2

[3] = molecular target: T1, PKCθ (Homo sapiens, UniProt Q04759); settings: in vitro and in intact T cells; cited from earlier work
[4] = test system: TNFα-induced NF-κB; assay: NF-κB activity induced by TNFα in Jurkat cells; format: cell-based, human; settings: TNFα 10 ng/ml (FIG. 4b)
Experimental: (§3) FIG. 4a: Jurkat T cells were cotransfected with CD28RE/AP-1-Luc (10 μg) and β-galactosidase plasmid (2 μg) reporters. Twenty hr later, cells were stimulated for 10 min with CD3- plus CD28-specific antibodies, in the presence or absence of rottlerin (Rott; 30 μM) or Gö6976 (Gö; 0.5 μM). Luciferase activity in cell lysates was determined. FIG. 4b Jurkat cells were incubated (15 min at 37° C.) in the absence or presence of rottlerin or Gö6976, and then stimulated with anti-CD3/CD28 antibodies or with TNFα (10 ng/ml) for the indicated times. Nuclear and cytoplasmic extracts were prepared, and protein from each fraction (5 μg) was analyzed by Western blotting with an anti-RelA antibody. FIG. 4c: Wild-type PKCθ-transfected Jurkat T cells were stimulated as in (a). Cell lysates were immunoprecipitated (IP) with normal rabbit serum (NRS) or with an anti-PKCθ antibody, and the in vitro enzymatic activity of PKCθ was measured in the presence or absence of rottlerin or Gö6976 (top panel). The membrane was immunoblotted with a PKCθ-specific antibody (bottom panel).
(§4) Subcellular Fractionation. To determine PKCθ redistribution, cells were fractionated into cytosolic or membrane fractions as described by Meller (1996) Mol. Cell. Biol. 16:5782-5791; and, SDS-PAGE-resolved proteins were immunoblotted with an HRP-conjugated anti-PKCθ monoclonal antibody (Transduction Laboratories). […]

[5] = test system: CD28RE/AP-1 element of the IL-2 promoter; assay: CD28RE/AP-1-Luc reporter assay, anti-CD3/CD28-stimulated Jurkat T cells; format: cell-based; settings: Homo sapiens, read-out: inhibition of anti-CD3/CD28-stimulated activity of CD28RE/AP-1
Experimental: as §3
Cell Culture, Transfection, and Reporter Assays. […] Transfected Jurkat cells were harvested after 24 hr, washed twice with PBS, lysed, and luciferase or β-galactosidase activities were determined. The results were expressed as arbitrary luciferase units normalized to β-galactosidase activity in the same cells.

[6] = test system: BAD (Ser-136, Ser-112); assay: Phosphorylation of BAD induced by Fas or combined CD3/CD28 ligation; format: cell-based
Source text: Thus, the invention provides methods for identifying inhibitors of PKCθ activity by determining the ability of a test agent to inhibit BAD phosphorylation by PKCθ or a BAD activity.

[7] = test system: NF-κB RelA (p65) nuclear translocation; assay: Nuclear translocation of RelA (p65) after anti-CD3/CD28 stimulation, Western blot of nuclear/cytoplasmic extracts; format: cell-based, human; settings: Jurkat cells preincubated 15 min at 37° C., anti-CD3/CD28 stimulation (FIG. 4b)
Experimental: as §3, §4

[8] = molecular target: T1, PKCθ; assay: In vitro kinase assay of immunoprecipitated PKCθ (MBP substrate); format: biochemical; design: expressed in transfected cells; host or cells: Jurkat (E6.1) human leukemic T cells; settings: immunoprecipitated PKCθ from wild-type PKCθ-transfected Jurkat T cells, inhibitor added to kinase reaction (FIG. 4c)
Experimental: as §3
Kinase Assays. […] ATP incorporation was determined using a STORM 860™ PhosphorImager (Molecular Dynamics). […]

[9] = test system: T cells; assay: Fas-mediated T cell apoptosis; format: cell-based
Source text: PKCθ mediates a selective T cell survival signal via phosphorylation of BAD, a Bcl-2 family member. PKC-activating phorbol esters protect various cell types, including T cells, from apoptosis induced by the interaction of Fas with its ligand. However, before the instant invention, the mechanism of this protective effect as well as the identity of the PKC isoform(s) involved in this process were poorly understood. Studies analyzed the role of PKCθ selectively expressed in T lymphocytes in protecting T cells from Fas-mediated apoptosis. […] These events preceded the onset of cell apoptosis. […] Thus, the invention provides methods for identifying inhibitors of PKCθ activity by determining the ability of a test agent to inhibit PKCθ selective protection of T cells from Fas-mediated apoptosis.

T1 sequence (Q04759 whole entry): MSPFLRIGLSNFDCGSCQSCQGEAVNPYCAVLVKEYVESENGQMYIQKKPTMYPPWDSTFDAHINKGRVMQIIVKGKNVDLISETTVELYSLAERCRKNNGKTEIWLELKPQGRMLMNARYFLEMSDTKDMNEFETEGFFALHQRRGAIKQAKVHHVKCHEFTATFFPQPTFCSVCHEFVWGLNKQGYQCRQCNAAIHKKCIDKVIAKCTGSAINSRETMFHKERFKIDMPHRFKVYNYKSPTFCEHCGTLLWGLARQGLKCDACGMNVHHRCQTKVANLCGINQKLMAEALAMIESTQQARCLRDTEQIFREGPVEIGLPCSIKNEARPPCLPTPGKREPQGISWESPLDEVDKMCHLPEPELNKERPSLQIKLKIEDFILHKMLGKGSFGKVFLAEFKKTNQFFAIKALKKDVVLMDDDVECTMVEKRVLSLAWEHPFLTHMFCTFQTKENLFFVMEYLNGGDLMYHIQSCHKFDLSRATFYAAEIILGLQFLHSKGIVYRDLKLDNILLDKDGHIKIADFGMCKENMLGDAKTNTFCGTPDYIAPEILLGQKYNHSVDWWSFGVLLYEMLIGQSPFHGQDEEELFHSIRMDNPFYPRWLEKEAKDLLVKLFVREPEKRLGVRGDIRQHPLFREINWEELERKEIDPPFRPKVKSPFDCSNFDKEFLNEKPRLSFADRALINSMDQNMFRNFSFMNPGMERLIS

For `CC(C)C[C@@H](C=O)NC(=O)[C@H](CC(C)C)NC(=O)[C@H](CC(C)C)NC(=O)OCc1ccccc1` [MG132] (Cbz-Leu-Leu-Leu-aldehyde), the “PKCθ-A/E-induced activation of NF-κB” value [1] was “blocked in a dose-dependent manner” and the “PKCθ-A/E-induced activation of CD28RE/AP-1” value [2] was “blocked in a dose-dependent manner; also recorded: inhibited”.

For `CC(=O)c1c(O)c(C)c(O)c(Cc2c(O)c3c(c(C(=O)/C=C/c4ccccc4)c2O)OC(C)(C)C=C3)c1O` [rottlerin], the “inhibition of PKCθ function” value [3] is given as “inhibits PKCθ function”, the “inhibition of NF-κB activity induced by TNFα” value [4] is given as “did not inhibit” and the inhibition at 30 µM [5] is given as ~80%. The “phosphorylation of BAD on Ser-136 (and to a lesser extent on Ser-112)” value [6] was “selectively blocked”, the “receptor-stimulated nuclear translocation of RelA (p65)” value [7] was “essentially blocked” and the “inhibition of CD3/CD28-induced PKCθ activity” value [8] was “considerably more effective than Gö6976”. For the same molecule, the “synergy with an anti-Fas antibody to induce rapid T cell apoptosis” value [9] was “synergized”.
